“And” between values parts separate entries of the source, which are not always exact repeats. Equal entries are not always repeated. Inconclusive results and toxic doses are left out.

For this assay, the system named is CD2F1 mice, L1210 leukemia ip, survival T/C. The assay is described as follows: NCI In Vivo Anticancer Drug Screen. Data for tumor model L1210 Leukemia (intraperitoneal) in CD2F1 (CDF1) mice. The note with it: higher = longer survival. Put shortly: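 Antitumor effect is scored in animals hosting a serially transplanted tumor. Values compare compound-dosed animals against vehicle-only controls as a simple quotient.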

The mark [1] stands for this setting: endpoint: mean survival time, dose: 12.5 mg/kg/injection, schedule: Q01DX009 (ip), vehicle: saline with Tween-80.
Setting [2] is: endpoint: mean survival time, dose: 25.0 mg/kg/injection, schedule: Q01DX009 (ip), vehicle: saline with Tween-80.
The mark [3] stands for this setting: endpoint: mean survival time, dose: 25.0 mg/kg/injection, schedule: Q04DX003 (ip), vehicle: saline with Tween-80.
Where [4] appears, read: endpoint: mean survival time, dose: 50.0 mg/kg/injection, schedule: Q01DX009 (ip), vehicle: saline with Tween-80.
The mark [5] stands for this setting: endpoint: mean survival time, dose: 100.0 mg/kg/injection, schedule: Q01DX009 (ip), vehicle: saline with Tween-80.
The mark [6] stands for this setting: endpoint: mean survival time, dose: 100.0 mg/kg/injection, schedule: Q04DX003 (ip), vehicle: saline with Tween-80.
[7] abbreviates: endpoint: mean survival time, dose: 75.0 mg/kg/injection, schedule: Q01DX001 (ip), vehicle: saline.
[8] abbreviates: endpoint: mean survival time, dose: 150.0 mg/kg/injection, schedule: Q01DX001 (ip), vehicle: saline.
Where [9] appears, read: endpoint: mean survival time, dose: 200.0 mg/kg/injection, schedule: Q04DX003 (ip), vehicle: saline with Tween-80.
Where [10] appears, read: endpoint: mean survival time, dose: 200.0 mg/kg/injection, schedule: Q01DX009 (ip), vehicle: saline with Tween-80.
Where [11] appears, read: endpoint: mean survival time, dose: 400.0 mg/kg/injection, schedule: Q01DX009 (ip), vehicle: saline with Tween-80.
Setting [12] is: endpoint: mean survival time, dose: 100.0 mg/kg/injection, schedule: Q01DX001 (ip), vehicle: saline with Tween-80.
[13] abbreviates: endpoint: mean survival time, dose: 200.0 mg/kg/injection, schedule: Q01DX001 (ip), vehicle: saline with Tween-80.

Consider `CC1CCC2CC(=O)NC(=O)CC12` (centres undefined), for which the T/C by setting is: (endpoint: mean survival time, dose: 6.25 mg/kg/injection, schedule: Q01DX009 (ip), vehicle: saline with Tween-80) 98 % of control; (endpoint: mean survival time, dose: 6.25 mg/kg/injection, schedule: Q04DX003 (ip), vehicle: saline with Tween-80) 97 % of control; under setting [1], 95 % of control; (endpoint: mean survival time, dose: 12.5 mg/kg/injection, schedule: Q04DX003 (ip), vehicle: saline with Tween-80) 97 % of control; under setting [2], 96 % of control; under setting [3], 92 % of control.

Turning to `CC(C)NC(=O)C1CC2c3cccc4[nH]cc(c34)CC2N(C)C1` (centres undefined), the T/C is 101 % of control under setting [2]; 98 % of control under setting [4]; 96 % of control (endpoint: mean survival time, dose: 50.0 mg/kg/injection, schedule: Q04DX003 (ip), vehicle: saline with Tween-80); 102 % of control under setting [5]; 105 % of control under setting [6].

For the molecule `COc1ccc(OC)c(C2N(C)CCCN2C)c1`, the T/C runs as follows: (endpoint: mean survival time, dose: 6.25 mg/kg/injection, schedule: Q01DX009 (ip), vehicle: saline sonified) 90 % of control; (endpoint: mean survival time, dose: 6.25 mg/kg/injection, schedule: Q04DX003 (ip), vehicle: saline sonified) 100 % of control; (endpoint: mean survival time, dose: 12.5 mg/kg/injection, schedule: Q01DX009 (ip), vehicle: saline sonified) 88 % of control; (endpoint: mean survival time, dose: 12.5 mg/kg/injection, schedule: Q04DX003 (ip), vehicle: saline sonified) 101 % of control; (endpoint: mean survival time, dose: 25.0 mg/kg/injection, schedule: Q01DX009 (ip), vehicle: saline sonified) 103 % of control; (endpoint: mean survival time, dose: 25.0 mg/kg/injection, schedule: Q04DX003 (ip), vehicle: saline sonified) 100 % of control.

Consider `CCCCCCC(C#N)C(=O)OCC` (centres undefined), for which the T/C reads like this: under setting [7], 100 % of control; under setting [8], 96 % of control; (endpoint: mean survival time, dose: 300.0 mg/kg/injection, schedule: Q01DX001 (ip), vehicle: saline) 100 % of control.

As for `CCCCCCCCP(=O)(N1CC1C)N1CC1C` (centres undefined), the T/C is 98 % of control (endpoint: mean survival time, dose: 6.25 mg/kg/injection, schedule: Q01DX009 (ip), vehicle: saline); 94 % of control (endpoint: mean survival time, dose: 12.5 mg/kg/injection, schedule: Q01DX009 (ip), vehicle: saline); 96 % of control (endpoint: mean survival time, dose: 25.0 mg/kg/injection, schedule: Q01DX009 (ip), vehicle: saline); 102 % of control (endpoint: mean survival time, dose: 50.0 mg/kg/injection, schedule: Q01DX009 (ip), vehicle: saline).

In the case of `Clc1ccc(-c2cc(C3CO3)c3cc(Cl)cc(Cl)c3n2)cc1` (centres undefined), the T/C is, setting by setting: (endpoint: mean survival time, dose: 100.0 mg/kg/injection, schedule: Q01DX001 (ip), vehicle: saline) 91 % of control; (endpoint: mean survival time, dose: 200.0 mg/kg/injection, schedule: Q01DX001 (ip), vehicle: saline) 97 % of control; (endpoint: mean survival time, dose: 400.0 mg/kg/injection, schedule: Q01DX001 (ip), vehicle: saline) 91 % of control.

Regarding `CCOCC(=O)CC(C)C`, the T/C reads like this: (endpoint: mean survival time, dose: 100.0 mg/kg/injection, schedule: Q04DX003 (ip), vehicle: other) 100 % of control; (endpoint: mean survival time, dose: 200.0 mg/kg/injection, schedule: Q04DX003 (ip), vehicle: other) 91 % of control; (endpoint: mean survival time, dose: 400.0 mg/kg/injection, schedule: Q04DX003 (ip), vehicle: other) 100 % of control.

For `OCCN1CCN(CCO)CC1.[Cl][Pt+2][Cl]`, the T/C is 101 % of control under setting [3], 97 % of control under setting [6] and 94 % of control under setting [9].

Consider `O=P(O)(O)OCC(O)CF` (centres undefined), for which, for the setting “endpoint: mean survival time, dose: 87.5 mg/kg/injection, schedule: Q04DX003 (ip), vehicle: saline”, the T/C is 118 % of control.

As for `c1nc(Sc2ncnc3nc[nH]c23)c2[nH]cnc2n1`, the T/C (endpoint: mean survival time, dose: 75.0 mg/kg/injection, schedule: Q01DX009 (ip), vehicle: saline with Tween-80) is 123 % of control and the T/C (endpoint: mean survival time, dose: 300.0 mg/kg/injection, schedule: Q01DX009 (ip), vehicle: saline with Tween-80) was 169 % of control.

On to `O=C1NCCC/C1=N/Nc1ccccc1`, for which the T/C reads like this: (endpoint: mean survival time, dose: 50.0 mg/kg/injection, schedule: Q04DX002 (ip), vehicle: saline with Tween-80) 100 % of control; under setting [5], 96 % of control; (endpoint: mean survival time, dose: 100.0 mg/kg/injection, schedule: Q04DX002 (ip), vehicle: saline with Tween-80) 108 % of control; under setting [10], 96 % of control; (endpoint: mean survival time, dose: 200.0 mg/kg/injection, schedule: Q04DX002 (ip), vehicle: saline with Tween-80) 112 % of control; under setting [11], 91 % of control.

Turning to `Cc1nc(NN)c([N+](=O)[O-])c(NN)n1`, the T/C (endpoint: mean survival time, dose: 100.0 mg/kg/injection, schedule: Q04DX003 (ip), vehicle: Klucel (hydroxypropylcellulose) (HPC)) was 89 % of control; the T/C (endpoint: mean survival time, dose: 200.0 mg/kg/injection, schedule: Q04DX003 (ip), vehicle: Klucel (hydroxypropylcellulose) (HPC)) was 95 % of control; the T/C (endpoint: mean survival time, dose: 400.0 mg/kg/injection, schedule: Q04DX003 (ip), vehicle: Klucel (hydroxypropylcellulose) (HPC)) was 102 % of control.

`CCOC(=O)Nc1cc(NCC(=O)CCc2ccccc2)c([N+](=O)[O-])c(N)n1`: the T/C runs as follows: (endpoint: mean survival time, dose: 100.0 mg/kg/injection, schedule: Q01DX001 (ip), vehicle: Klucel (hydroxypropylcellulose) (HPC)) 93 % of control; (endpoint: mean survival time, dose: 200.0 mg/kg/injection, schedule: Q01DX001 (ip), vehicle: Klucel (hydroxypropylcellulose) (HPC)) 91 % of control; (endpoint: mean survival time, dose: 400.0 mg/kg/injection, schedule: Q01DX001 (ip), vehicle: Klucel (hydroxypropylcellulose) (HPC)) 91 % of control.

For `c1ccc2c(c1)ncc1cc3c(cc12)[nH]c1ccccc13`, the T/C (endpoint: mean survival time, dose: 100.0 mg/kg/injection, schedule: Q01DX001 (ip), vehicle: other) is 96 % of control; the T/C (endpoint: mean survival time, dose: 200.0 mg/kg/injection, schedule: Q01DX001 (ip), vehicle: other) was 101 % of control; the T/C (endpoint: mean survival time, dose: 400.0 mg/kg/injection, schedule: Q01DX001 (ip), vehicle: other) is 104 % of control.

In the case of `CCOC(=O)C1=C(C)NC(C)=C(C(=O)OCC)C1c1ccc(Cl)cc1`, the T/C runs as follows: under setting [5], 96 % of control; under setting [10], 100 % of control; under setting [11], 96 % of control.

On to `Nc1nc(-c2cccc([N+](=O)[O-])c2)c(N=Nc2ccc([N+](=O)[O-])cc2)s1`, for which the T/C was 93 % of control under setting [12] and 95 % of control under setting [13].

Regarding `O=C1CCCCC1CNCc1ccccc1` (centres undefined), the T/C under setting [7] is 102 % of control and the T/C under setting [8] is 93 % of control.

On to `Cc1c2ccccc2cc2c1ccc1cccc(F)c12`, for which the T/C runs as follows: (endpoint: median survival time, dose: 12.5 mg/kg/injection, schedule: Q04DX003 (ip), vehicle: saline with Tween-80) 100 % of control; (endpoint: median survival time, dose: 25.0 mg/kg/injection, schedule: Q04DX003 (ip), vehicle: saline with Tween-80) 100 % of control; (endpoint: median survival time, dose: 50.0 mg/kg/injection, schedule: Q04DX003 (ip), vehicle: saline with Tween-80) 100 % of control.

For `COC12C(COC(N)=O)C3=C(C(=O)C(C)=C(N4CC4)C3=O)N1CC1NC12` (centres undefined), the T/C runs as follows: (endpoint: mean survival time, dose: 0.14 mg/kg/injection, schedule: Q01DX007 (ip), vehicle: acetone) 124 % of control; (endpoint: mean survival time, dose: 0.25 mg/kg/injection, schedule: Q01DX001 (ip), vehicle: acetone) 106 % of control; (endpoint: mean survival time, dose: 0.33 mg/kg/injection, schedule: Q01DX001 (ip), vehicle: acetone) 116 % of control; (endpoint: mean survival time, dose: 0.5 mg/kg/injection, schedule: Q01DX007 (ip), vehicle: acetone) 153 % of control; (endpoint: mean survival time, dose: 1.0 mg/kg/injection, schedule: Q01DX001 (ip), vehicle: carboxymethylcellulose (CMC)) 151 % of control; (endpoint: mean survival time, dose: 1.5 mg/kg/injection, schedule: Q01DX001 (ip), vehicle: carboxymethylcellulose (CMC)) 114 % of control.

`CCOC(=O)C(=CC(C(=O)OCC)C(=O)OCC)C(=O)OCC`: the T/C under setting [12] was 93 % of control; the T/C under setting [13] is 104 % of control; the T/C (endpoint: mean survival time, dose: 400.0 mg/kg/injection, schedule: Q01DX001 (ip), vehicle: saline with Tween-80) was 96 % of control.

Take `CC1=NN(c2ccccc2)C(=O)C1N=Nc1ccccc1S(=O)(=O)O` (centres undefined): the T/C is 103 % of control under setting [5]; 97 % of control under setting [6]; 97 % of control under setting [10]; 103 % of control under setting [9]; 101 % of control under setting [11]; 112 % of control (endpoint: mean survival time, dose: 400.0 mg/kg/injection, schedule: Q04DX003 (ip), vehicle: saline with Tween-80).

In the case of `C[N+](C)(C)/N=C/C=C/c1ccccc1`, the T/C under setting [1] was 104 % of control; the T/C under setting [2] is 104 % of control; the T/C under setting [4] was 96 % of control and 107 % of control.
